Assay [1] deals with T1, β5 subunit of the human constitutive proteasome (CPS) (Homo sapiens, UniProt P28074).
T1 construct: purchased Boston Biochem E-360
Nature of the assay: β5 inhibition assay, human constitutive proteasome (Suc-LLVY-AMC). Type of assay: biochemical. Conditions: IC50 class, Suc-LLVY-AMC substrate. How it is done: The enzymatic activity of the β5 subunit of the human constitutive proteasome (CPS) is analyzed. In another assay, which differs from the assay of the human constitutive proteasome only in using the human immunoproteasome (IPS) the enzymatic activity of the β5 subunit of the human immunoproteasome (IPS) is analyzed. […] Inhibition is indicated as IC50 [nM] (“-”=not measured).

In the next assay the test system is HT-29 cells. Nature of the assay: CellTiter-Glo luminescent cell viability assay with HT-29 cells (72h incubation). Conditions: Homo sapiens, HT-29, HT29 cells, read-out: CTG HT29. In kind it is cell-based, human. An outline of the steps:
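400 cells per well in DMEM/10% FCS were dosed after 24 h and kept 72 h at 37 °C, 5% CO2. ATP-based luminescence (CellTiter-Glo) normalized to DMSO and 10 μM staurosporine controls; IC50 by dose-response fit.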

The subject of a further assay is hPMBC. Nature of the assay: Chymotrypsin-like ProteasomeGlo assay in hPBMC. Type of assay: cell-based. The following applies: Homo sapiens; read-out: Pglo hPBMC. An outline of the steps: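 B cells isolated from human PBMC (buffy coats, density gradient, magnetic isolation). Cells treated with compound for 105 min at 37 °C, with staurosporine and DMSO included. Chymotrypsin-like proteasome activity read by luminescence with Suc-LLVY-Glo substrate to derive IC50.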

Structures are written as SMILES.

On to `Cc1ccc2cc1CNC(=O)[C@H](CCc1ccccc1)NC(=O)[C@@H](NC(=O)C1CCN1)CC(=O)N1CCCC(CCO2)C1` (stereo partly drawn) [Compound 160, (2R)-N-((9S,12S)-5^4-methyl-8,11,14-trioxo-9-phenethyl-4-oxa-7,10-diaza-1(3,1)-piperidina-5(1,3)-benzenacyclotetradecaphane-12-yl)azetidine-2-carboxamide], for which the IC50 (in assay [1]; in the assay on HT-29 cells; in the assay with hPMBC) was less than 0.1 µM in each case.
On to `Cc1ccc2cc1CNC(=O)[C@H](CCc1ccccc1)NC(=O)[C@@H](NC(=O)CCc1ccccc1-c1ccccc1)CC(=O)N1CCCC(CCO2)C1` (stereo partly drawn) [Compound 177], for which the IC50 (in assay [1]; in the assay with HT-29 cells; in the assay on hPMBC) was less than 0.1 µM throughout.
For the compound `CC(=O)N[C@H]1CC(=O)N2CCCC(CCOc3ccc(C)c(c3)CNC(=O)C(c3cnn(CCCS(=O)(=O)O)c3)NC1=O)C2` (stereo partly drawn) [Compound 571, 3-(4-((12S)-12-acetamido-5^4-methyl-8,11,14-trioxo-4-oxa-7,10-diaza-1(3,1)-piperidina-5(1,3)-benzenacyclotetradecaphane-9-yl)-1H-pyrazol-1-yl)propane-1-sulfonic acid], the IC50 is less than 0.1 µM in assay [1], 0.5 to 1 µM in the assay on HT-29 cells and less than 0.1 µM in the assay on hPMBC.
In the case of `Cc1ccc2cc1CNC(=O)[C@H](CCc1ccccc1)NC(=O)[C@@H](NC(=O)OCc1ccccc1)CCCC(=O)N1CCCC(CCO2)C1` (stereo partly drawn) [Compound 195, benzyl ((9S,12S)-5^4-methyl-8,11,16-trioxo-9-phenethyl-4-oxa-7,10-diaza-1(3,1)-piperidina-5(1,3)-benzenacyclohexadecaphane-12-yl)carbamate], the IC50 (in assay [1]; in the assay on HT-29 cells; in the assay with hPMBC) was less than 0.1 µM in each case.
Regarding `CNCC(=O)N[C@H]1CC(=O)N2CCCC(CCOc3ccc(C)c(c3)CNC(=O)[C@H](CCc3ccccc3)NC1=O)C2` (stereo partly drawn) [Compound 129, N-((9S,12S)-5^4-methyl-8,11,14-trioxo-9-phenethyl-4-oxa-7,10-diaza-1(3,1)-piperidina-5(1,3)-benzenacyclotetradecaphane-12-yl)-2-(methylamino)acetamide], the IC50 (in assay [1]; in the assay with HT-29 cells; in the assay with hPMBC) was less than 0.1 µM each time.
As to `Cc1ccc2cc1CNC(=O)[C@H](CCc1ccccc1)NC(=O)[C@@H](NC(=O)C1(F)CCNCC1)CC(=O)N1CCCC(CCO2)C1` (stereo partly drawn) [Compound 134, 4-fluoro-N-((9S,12S)-5^4-methyl-8,11,14-trioxo-9-phenethyl-4-oxa-7,10-diaza-1(3,1)-piperidina-5(1,3)-benzenacyclotetradecaphane-12-yl)piperidine-4-carboxamide], the IC50 (in assay [1]; with HT-29 cells; with hPMBC) was less than 0.1 µM throughout.
Regarding `CO[C@@H](C(=O)N[C@H]1CC(=O)N2CCCC(CCOc3ccc(C)c(c3)CNC(=O)[C@H](CCc3ccccc3)NC1=O)C2)c1ccccc1` (stereo partly drawn) [Compound 86, (2R)-2-methoxy-N-((9S,12S)-5^4-methyl-8,11,14-trioxo-9-phenethyl-4-oxa-7,10-diaza-1(3,1)-piperidina-5(1,3)-benzenacyclotetradecaphane-12-yl)-2-phenylacetamide], the IC50 (in assay [1]; with HT-29 cells; in the assay with hPMBC) was less than 0.1 µM throughout.
For the compound `Cc1ccc2cc1CNC(=O)[C@H](CCc1ccccc1)NC(=O)[C@@H](NC(=O)[C@@H](N)Cc1ccccc1)CC(=O)N1CCCC(CCO2)C1` (stereo partly drawn) [Compound 179, (2R)-2-amino-N-((9S,12S)-5^4-methyl-8,11,14-trioxo-9-phenethyl-4-oxa-7,10-diaza-1(3,1)-piperidina-5(1,3)-benzenacyclotetradecaphane-12-yl)-3-phenylpropanamide-], the IC50 (in assay [1]; with HT-29 cells; in the assay with hPMBC) was less than 0.1 µM in each case.
With `Cc1ccc2cc1CNC(=O)[C@H](CCc1ccccc1)NC(=O)[C@@H](NC(=O)Cc1cccc(N)c1)CC(=O)N1CCCC(CCO2)C1` (stereo partly drawn) [Compound 127, 2-(3-aminophenyl)-N-((9S,12S)-5^4-methyl-8,11,14-trioxo-9-phenethyl-4-oxa-7,10-diaza-1(3,1)-piperidina-5(1,3)-benzenacyclotetradecaphane-12-yl)acetamide], the IC50 (in assay [1]; in the assay on HT-29 cells; with hPMBC) was less than 0.1 µM each time.
For `Cc1ccc2cc1CNC(=O)[C@H](CCc1ccccc1)NC(=O)[C@@H](NC(=O)C1(C)COC1)CC(=O)N1CCCC(CCO2)C1` (stereo partly drawn) [Compound 287, 3-methyl-N-((9S,12S)-5^4-methyl-8,11,14-trioxo-9-phenethyl-4-oxa-7,10-diaza-1(3,1)-piperidina-5(1,3)-benzenacyclotetradecaphane-12-yl)oxetane-3-carboxamide], the IC50 (in assay [1]; with HT-29 cells; in the assay with hPMBC) was less than 0.1 µM each time.
Turning to `Cc1ccc2cc1CNC(=O)[C@H](CCc1ccccc1)NC(=O)[C@@H](NC(=O)CCc1ccc(-c3ccccc3)cc1)CC(=O)N1CCCC(CCO2)C1` (stereo partly drawn) [Compound 176, 3-([1,1′-biphenyl]-4-yl)-N-((9S,12S)-5^4-methyl-8,11,14-trioxo-9-phenethyl-4-oxa-7,10-diaza-1(3,1)-piperidina-5(1,3)-benzenacyclotetradecaphane-12-yl)propanamide], the IC50 (in assay [1]; in the assay on HT-29 cells; with hPMBC) was less than 0.1 µM in each case.
In the case of `Cc1ccc2cc1CNC(=O)[C@H](CCc1ccccc1)NC(=O)[C@@H](NC(=O)C1(C)CCNCC1)CC(=O)N1CCCC(CCO2)C1` (stereo partly drawn) [Compound 136, 4-methyl-N-((9S,12S)-5^4-methyl-8,11,14-trioxo-9-phenethyl-4-oxa-7,10-diaza-1(3,1)-piperidina-5(1,3)-benzenacyclotetradecaphane-12-yl)piperidine-4-carboxamide], the IC50 in assay [1] was less than 0.1 µM; in the assay with HT-29 cells it was 0.1 to 0.5 µM; in the assay on hPMBC, less than 0.1 µM.
In the case of `Cc1nc2cc(CCC(=O)N[C@H]3CC(=O)N4CCCC(CCOc5ccc(C)c(c5)CNC(=O)[C@H](CCc5ccccc5)NC3=O)C4)ccc2[nH]1` (stereo partly drawn) [Compound 174, 3-(2-methyl-1H-benzo[d]imidazol-6-yl)-N-((9S,12S)-5^4-methyl-8,11,14-trioxo-9-phenethyl-4-oxa-7,10-diaza-1(3,1)-piperidina-5(1,3)-benzenacyclotetradecaphane-12-yl)propanamide], the IC50 (in assay [1]; in the assay with HT-29 cells; in the assay with hPMBC) was less than 0.1 µM in each case.
With `CC(=O)N[C@H]1CCC(=O)N2CCCC(CCOc3ccc(C)c(c3)CNC(=O)[C@H](CCc3ccccc3)NC1=O)C2` (stereo partly drawn) [Compound 215, N-((9S,12S)-5^4-methyl-8,11,15-trioxo-9-phenethyl-4-oxa-7,10-diaza-1(3,1)-piperidina-5(1,3)-benzenacyclopentadecaphane-12-yl)acetamide], the IC50 (in assay [1]; in the assay with HT-29 cells; in the assay with hPMBC) was less than 0.1 µM each time.
On to `Cc1ccc2cc1CNC(=O)[C@H](CCc1ccccc1)NC(=O)[C@@H](NC(=O)CCc1ccc3[nH]ccc3c1)CC(=O)N1CCCC(CCO2)C1` (stereo partly drawn) [Compound 182, 3-(1H-indol-5-yl)-N-((9S,12S)-5^4-methyl-8,11,14-trioxo-9-phenethyl-4-oxa-7,10-diaza-1(3,1)-piperidina-5(1,3)-benzenacyclotetradecaphane-12-yl)propanamide], for which the IC50 (in assay [1]; with HT-29 cells; with hPMBC) was less than 0.1 µM each time.

Values taken from patent publication US20240415819A1, “MACROCYCLIC COMPOUNDS AS PROTEASOME SUBUNIT BETA TYPE-5 INHIBITORS” (Lead Discovery Center GmbH, priority 2021, published 2024).
